Laboratory results taken from article PMC9573387, “The First 5′-Phosphorylated 1,2,3-Triazolyl Nucleoside Analogues with Uracil and Quinazoline-2,4-Dione Moieties: A Synthesis and Antiviral Evaluation” (Molecules, 2022).
Where a name gives a salt, the structure may show the parent alone. Read-outs that look alike come from different tables or passages of the source.

Key:
HIV = conditions: cited from earlier work
[1] = test system: recombinant HIV reverse transcriptases (RT); design: method as in PMID 17434736; conditions: cited from earlier work
wild-type HIV RT = test system: wild-type HIV RT; design: method as in PMID 17434736; conditions: cited from earlier work
[2] = test system: A/Puerto Rico/8/34 (H1N1) influenza virus; assay: microbe, parasite or virus in culture; type: cell-based; conditions: for IC50: 48 h, A/Puerto Rico/8/34 (H1N1), MDCK cells, read-out: IC50 (50% inhibition of virus replication)
in vitro = conditions: dog
MDCK (ATCC CCL-34) cells [3] = test system: MDCK (ATCC CCL-34) cells
[4] = test system: A/Puerto Rico/8/34 (H1N1) influenza virus; design: method as in PMID 32930935; conditions: parent nucleoside analogues, cited from earlier work; for IC50: A/Puerto Rico/8/34 (H1N1), read-out: IC50 (50% inhibition of virus replication)
MDCK (ATCC CCL-34) cells [5] = conditions: read-out: CC50 (median cytotoxic concentration); parent nucleoside analogues; cited from earlier work

Nc1nc(=O)n([C@H]2C[C@@H](CO)C2)cc1F [5-fluoro-1-[cis-3-(hydroxymethyl)-cyclobutyl]-cytosine]
Anti-HIV activity, inactive up to (HIV; in vitro): > 100 µM

Nc1nc(=O)n([C@H]2C[C@@H](COP(=O)(O)OP(=O)(O)OP(=O)(O)O)C2)cc1F [5′-triphosphate of 5-fluoro-1-[cis-3-(hydroxymethyl)-cyclobutyl]-cytosine]
IC50 [1]: 4.7 µM | IC50 (wild-type HIV RT): 6.9 µM

CCOP(=O)(OCC)OC[C@H]1O[C@@H](n2cc(Cn3ccc(=O)[nH]c3=O)nn2)[C@H](O)[C@@H]1O [Compound 11a]
IC50 ([2]; Influenza A virus, H1N1, MDCK): 434 ± 39 µM | CC50 (in vitro): > 650 µM

CCOP(=O)(OCC)OC[C@H]1O[C@@H](n2cc(Cn3c(=O)[nH]c(=O)c4ccccc43)nn2)[C@H](O)[C@@H]1O [Compound 11b]
IC50 ([2]; Influenza A virus, H1N1, MDCK): 411 ± 51 µM | CC50 (in vitro): > 587 µM

CCOP(=O)(OCC)OC[C@H]1O[C@@H](n2cc(CCCCn3ccc(=O)[nH]c3=O)nn2)[C@H](O)[C@@H]1O [Compound 12a, 1-[4-(2,4-dioxo-pyrimidine-1-yl-butyl)-1,2,3-triazol-1-yl]--D-ribofuranose-5-yl diethyl phosphate]
Antiviral activity against H1N1 (A/PR/8/34) influenza virus, in words [2]: inactive | IC50 [2]: 250 ± 22 µM | IC50 ([2]; Influenza A virus, H1N1, MDCK): > 180 µM | CC50 (in vitro): > 596 µM

CCOP(=O)(OCC)OC[C@H]1O[C@@H](n2cc(CCCCn3c(=O)[nH]c(=O)c4ccccc43)nn2)[C@H](O)[C@@H]1O [Compound 12b]
IC50 ([2]; Influenza A virus, H1N1, MDCK): > 542 µM | CC50 (in vitro): > 542 µM

O=c1ccn(Cc2cn([C@@H]3O[C@H](COP(=O)(Oc4ccccc4)Oc4ccccc4)[C@@H](O)[C@H]3O)nn2)c(=O)[nH]1 [Compound 13a]
IC50 ([2]; Influenza A virus, H1N1, MDCK): 121 ± 7 µM | CC50 (in vitro): > 538 µM

O=c1[nH]c(=O)n(Cc2cn([C@@H]3O[C@H](COP(=O)(Oc4ccccc4)Oc4ccccc4)[C@@H](O)[C@H]3O)nn2)c2ccccc12 [Compound 13b]
Antiviral activity exceeding that of the parent compound ([2]; IC50 versus parent compound 33b): 2 times | IC50 ([2]; Influenza A virus, H1N1, MDCK): 17.9 ± 3 µM | Increase of selectivity index over the parent compound ([2]; SI versus parent compound 33b): 7 times | CC50 (in vitro): > 494 µM

O=c1ccn(CCCCc2cn([C@@H]3O[C@H](COP(=O)(Oc4ccccc4)Oc4ccccc4)[C@@H](O)[C@H]3O)nn2)c(=O)[nH]1 [Compound 14a]
Antiviral activity against H1N1 (A/PR/8/34) influenza virus, in words [2]: inactive | IC50 [2]: 183 ± 15 µM | IC50 ([2]; Influenza A virus, H1N1, MDCK): > 180 µM | CC50 (in vitro): > 500 µM

O=c1[nH]c(=O)n(CCCCc2cn([C@@H]3O[C@H](COP(=O)(Oc4ccccc4)Oc4ccccc4)[C@@H](O)[C@H]3O)nn2)c2ccccc12 [Compound 14b]
SI (selectivity index, CC50/IC50 ratio) [2]: 2 | IC50 ([2]; Influenza A virus, H1N1, MDCK): 51 ± 4 µM | Increase of cytotoxicity over the parent compound (MDCK (ATCC CCL-34) cells [3]; CC50 versus parent compound 34b): 7 fold | CC50 (in vitro): 98 ± 6 µM

COC(=O)[C@H](C)NP(=O)(OC[C@H]1O[C@@H](n2cc(Cn3ccc(=O)[nH]c3=O)nn2)[C@H](O)[C@@H]1O)Oc1ccccc1 (stereo partly shown) [Compound 17a]
IC50 ([2]; Influenza A virus, H1N1, MDCK): 25 ± 4 µM | CC50 (in vitro): > 530 µM

COC(=O)[C@H](C)NP(=O)(OC[C@H]1O[C@@H](n2cc(Cn3c(=O)[nH]c(=O)c4ccccc43)nn2)[C@H](O)[C@@H]1O)Oc1ccccc1 (stereo partly shown) [Compound 17b]
IC50 ([2]; Influenza A virus, H1N1, MDCK): > 487 µM | CC50 (in vitro): > 487 µM

COC(=O)[C@H](C)NP(=O)(OC[C@H]1O[C@@H](n2cc(CCCCn3ccc(=O)[nH]c3=O)nn2)[C@H](O)[C@@H]1O)Oc1ccccc1 (stereo partly shown) [Compound 18a]
Antiviral activity against H1N1 (A/PR/8/34) influenza virus, in words [2]: inactive | CC50 (in vitro): > 463 µM

COC(=O)[C@H](C)NP(=O)(OC[C@H]1O[C@@H](n2cc(CCCCn3c(=O)[nH]c(=O)c4ccccc43)nn2)[C@H](O)[C@@H]1O)Oc1ccccc1 (stereo partly shown) [Compound 18b]
IC50 ([2]; Influenza A virus, H1N1, MDCK): > 456 µM | CC50 (in vitro): > 456 µM

O=c1ccn(Cc2cn([C@@H]3O[C@H](CO[PH](=O)O)[C@@H](O)[C@H]3O)nn2)c(=O)[nH]1 [Compound 23a, 1-[4-(2,4-dioxo-pyrimidine-1-yl-methyl)-1,2,3-triazol-1-yl]--D-ribofuranose-5-yl H-phosphonate triethylammonium salt]
IC50 ([2]; Influenza A virus): 204 ± 28 µM | CC50 (in vitro): > 612 µM

O=c1[nH]c(=O)n(Cc2cn([C@@H]3O[C@H](CO[PH](=O)O)[C@@H](O)[C@H]3O)nn2)c2ccccc12 [Compound 23b]
IC50 ([2]; Influenza A virus): 176 ± 21 µM | CC50 (in vitro): > 555 µM

O=c1ccn(CCCCc2cn([C@@H]3O[C@H](CO[PH](=O)O)[C@@H](O)[C@H]3O)nn2)c(=O)[nH]1 [Compound 24a]
Antiviral activity against H1N1 (A/PR/8/34) influenza virus, in words [2]: inactive | IC50 ([2]; Influenza A virus): 218 ± 32 µM | CC50 (in vitro): > 564 µM

O=c1[nH]c(=O)n(CCCCc2cn([C@@H]3O[C@H](CO[PH](=O)O)[C@@H](O)[C@H]3O)nn2)c2ccccc12 [Compound 24b]
IC50 ([2]; Influenza A virus, H1N1, MDCK): > 516 µM | CC50 (in vitro): > 516 µM

O=c1ccn(Cc2cn([C@@H]3O[C@H](COP(=O)(O)O)[C@@H](O)[C@H]3O)nn2)c(=O)[nH]1 [Compound 25a]
IC50 ([2]; Influenza A virus, H1N1, MDCK): > 494 µM | CC50 (in vitro): > 494 µM

O=c1[nH]c(=O)n(Cc2cn([C@@H]3O[C@H](COP(=O)(O)O)[C@@H](O)[C@H]3O)nn2)c2ccccc12 [Compound 25b]
IC50 ([2]; Influenza A virus): 159 ± 19 µM | CC50 (in vitro): > 458 µM

O=c1ccn(CCCCc2cn([C@@H]3O[C@H](COP(=O)(O)O)[C@@H](O)[C@H]3O)nn2)c(=O)[nH]1 [Compound 26a]
Antiviral activity against H1N1 (A/PR/8/34) influenza virus, in words [2]: inactive | IC50 ([2]; Influenza A virus): 195 ± 26 µM | CC50 (in vitro): > 463 µM

O=c1[nH]c(=O)n(CCCCc2cn([C@@H]3O[C@H](COP(=O)(O)O)[C@@H](O)[C@H]3O)nn2)c2ccccc12 [Compound 26b]
IC50 ([2]; Influenza A virus): > 430 µM | CC50 (in vitro): > 430 µM

O=c1ccn(Cc2cn([C@@H]3O[C@H](CO)[C@@H](O)[C@H]3O)nn2)c(=O)[nH]1 [Compound 33a]
IC50 [4]: > 880 µM | Antiviral activity against H1N1 (A/PR/8/34) influenza virus, in words [4]: completely inactive | CC50 (MDCK (ATCC CCL-34) cells [5]): > 880 µM

O=c1[nH]c(=O)n(Cc2cn([C@@H]3O[C@H](CO)[C@@H](O)[C@H]3O)nn2)c2ccccc12 [Compound 33b]
SI (selectivity index, CC50/IC50 ratio) [2]: 3 | IC50 [4]: 42 ± 5 µM

O=c1ccn(CCCCc2cn([C@@H]3O[C@H](CO)[C@@H](O)[C@H]3O)nn2)c(=O)[nH]1 [Compound 34a]
IC50 [4]: > 180 µM | Antiviral activity against H1N1 (A/PR/8/34) influenza virus, in words [4]: inactive | CC50 (MDCK (ATCC CCL-34) cells [5]): > 817 µM

O=c1[nH]c(=O)n(CCCCc2cn([C@@H]3O[C@H](CO)[C@@H](O)[C@H]3O)nn2)c2ccccc12 [Compound 34b]
IC50 [4]: 30 ± 4 µM | CC50 (MDCK (ATCC CCL-34) cells [5]): > 719 µM

CCC(CC)O[C@@H]1C=C(C(=O)O)C[C@H](N)[C@H]1NC(C)=O [Oseltamivir carboxylate, reference compound]
SI (selectivity index, CC50/IC50 ratio) [2]: >667 | IC50 ([2]; Influenza A virus): 0.3 ± 0.06 µM | CC50 (in vitro): > 200 µM

COC(=O)[C@H](C)NP(=O)(OC[C@H]1O[C@@H](n2cc(C)c(=O)[nH]c2=O)C[C@@H]1N=[N+]=[N-])Oc1ccccc1 (stereo partly drawn) [ProTide-ZDV, 5′-(phenylmethoxy-L-alaninyl)phosphate of Zidovudine]
Better activity against HIV than the parent nucleoside analogue (HIV; ProTide versus parent): more than 100 times

NC(=O)c1ncn([C@@H]2O[C@H](CO)[C@@H](O)[C@H]2O)n1 [Ribavirin, reference compound]
SI (selectivity index, CC50/IC50 ratio) [2]: 3 | IC50 ([2]; Influenza A virus): 31 ± 9 µM | CC50 (MDCK (ATCC CCL-34) cells [3]; dog): 94 ± 48 µM

CC(N)C12CC3CC(CC(C3)C1)C2 (stereo not shown) [Rimantadine, reference compound]
SI (selectivity index, CC50/IC50 ratio) [2]: 4 | IC50 ([2]; Influenza A virus, H1N1, MDCK): 77 ± 8 µM | CC50 (MDCK (ATCC CCL-34) cells [3]; read-out: CC50 (median cytotoxic concentration), MDCK cells, MTT, concentration causing 50% cell death): 340 ± 16 µM
